Results from patent US8729032B2, “Self-assembling peptide and peptide gel with high strength” (Menicon Co., Ltd., priority 2009, dated 2014).

Columns and labels:
mouse myoblasts (L6) = experiment: Cell culture in peptide gel, DNA quantification (CyQUANT), cell growth rate; format: cell-based; conditions: rate immediately after start = 100%, peptide 0.4 w/v %, average of n=3
Description: A cell suspension including mouse myoblasts (L6) at a cell concentration of 2.0×10^6 cells/ml and a peptide aqueous solution including the modified peptide 1 at 1.0 w/v % were mixed with each other at a volume ratio of 3:2 (cell suspension:peptide aqueous solution). The resultant mixture (cell concentration: 1.2×10^6 cells/ml, peptide concentration: 0.4 w/v %) was charged into a Cell Culture Insert (product number “353096” manufactured by BD Falcon) and left to stand still at room temperature for approximately 1 minute to form a peptide gel. The gel in the Cell Culture Insert was directly set in wells of a 24-well plate for tissue culture (product number “3820-024” manufactured by AGC TECHNO GLASS CO., LTD.) with 1 mL of a DMEM medium containing 10% calf serum. Next, cell culture was carried out in an incubator at 37° C. in the presence of 5% CO2. Medium exchange was carried out only once on Day 2 after the start of culture. The gel was collected on Days 1, 2, and 4 after the start of culture, and DNA quantification was carried out using a trade name “CyQUANT (registered trademark) Cell Proliferation Assay Kit*for cells in culture**1000 assays*” (product number “C7026” manufactured by Invitrogen), to thereby calculate cell growth rates. The cell growth rates on Days 1, 2, and 4 after the start of culture were 150%, 180%, and 310%, respectively, when the cell growth rate immediately after the start of culture was defined as 100%, that is, the number of cells increased in accordance with a lapse of days (an average of n=3 was used for the calculation results).

mouse NIH3T3 cells = experiment: Cell culture in autoclaved peptide gel, Cell Counting Kit 8, cell growth rate; format: cell-based; conditions: Day 0 (Hour 2), Day 1, Day 3, Day 5; gel from 0.5 w/v % solution autoclaved at 121° C. for 20 minutes; FIG. 9
Protocol: The modified peptide 1 was dissolved in a sodium carbonate solution to prepare a 0.5 w/v % peptide aqueous solution (final concentration of sodium carbonate: 2.75 mM). The peptide aqueous solution was subjected to sterilization treatment at 121° C. for 20 minutes using an autoclave apparatus (product number “MLS 3020” manufactured by SANYO Electric Co., Ltd.) to afford a peptide gel. The gel and a cell suspension obtained by suspending mouse NIH3T3 cells in a DMEM medium were uniformly mixed with each other at a volume ratio of 2:1 (gel:cell suspension) by pipetting. […] Cell growth rates were measured using a trade name “Cell Counting Kit 8” (manufactured by DOJINDO LABORATORIES) on Day 0 (Hour 2), Day 1, Day 3, and Day 5 after the start of culture.
A specific procedure for the measurement of the cell growth rates described above is as described below. […] After the incubation, 100 μL of the medium permeating the gel in the Cell Culture Insert were transferred to a well of a 96-well plate, and the absorbance of the medium at 450 nm was measured using a plate reader. Cell growth rates in the respective culture days were determined with the absorbance of a sample on Day 0 after the start of culture defined as 100.

Substance	cell growth rate (mouse myoblasts (L6); Day 1 after start of culture) [%]	cell growth rate (mouse myoblasts (L6); Day 2 after start of culture) [%]	cell growth rate (mouse myoblasts (L6); Day 4 after start of culture) [%]	cell growth rates (mouse NIH3T3 cells)
[CH3CO]-RLDLRLALRLDLR-[NH2] (Ac-RLDLRLALRLDLR-NH2) [modified peptide 1]	150	180	310	increased in accordance with a lapse of culture days
[CH3CO]-RLDLRLLLRLDLR-[NH2] (Ac-RLDLRLLLRLDLR-NH2) [modified peptide 2]	140	160	250	–
